Reference: patent US5055472A, “Pyrazolopyrimidine type mevalonolactones” (Nissan Chemical Industries, Ltd., priority 1988, dated 1991)

Columns and labels:
cholesterol biosynthesis [1] = assay: Test A: Inhibition of cholesterol biosynthesis from acetate in vitro; format: biochemical, male Wistar rat; details: relative to CS-514 = 1 (Test A)
Procedure: Enzyme solution was prepared from liver of male Wistar rat billialy connulated and discharged bile for over 24 hours. Liver was cut out at mid-dark and microsome and supernatant fraction which was precipitable with 40-80% of solution of ammonium sulfate (sup fraction) were prepared from liver homogenate according to the modified method of Knauss et. al.; Kuroda, M., et. al., Biochim. Biophys. Acta, 489, 119 (1977). For assay of cholesterol biosynthesis, microsome (0.1 mg protein) and sup fraction (1.0 mg protein) were incubated for 2 hours at 37° C. in 200 μl of the reaction mixture containing ATP; 1 mM, Glutathione; 6 mM, Glucose-1-phosphate; 10 mM, NAD; 0.25 mM, NADP; 0.25 mM, CoA; 0.04 mM and 0.2 mM [2-^14 C]sodium acetate (0.2 μCi) with 4 μl of test compound solution dissolved in water or dimethyl sulfoxide. To stop reaction and saponify, 1 ml of 15% EtOH-KOH was added to the reactions and heated at 75° C. for 1 hour. Nonsaponifiable, lipids were extracted with petroleum ether and incorporated ^14 C radioactivity was counted. Inhibitory activity of compounds was indicated with IC50.
With respect to the compounds of the present invention, the inhibitory activities against the cholesterol biosynthesis in which HMG-CoA reductase serves as a rate limiting enzyme, were measured by the above Test A and B. The results are shown in Tables 2, 3-1 and 3-2.
The relative activities of the compounds of the present invention based on the activities of CS-514 by Test A being evaluated to be 1, are shown in Table 2.

Test D: Acute toxicity = details: mouse, in vivo, 1000 mg/kg; 1,000 mg/kg oral, 0.5% CMC suspension, ICR male mice, after seven days
Procedure: A 0.5% CMC suspension of a test compound was orally administered to ICR male mice (group of three mice). The acute toxicity was determined based on the mortality after seven days. With compound I 5-4 and I-5-6 of the present ivnention, the mortality was 0% even when they were orally administered in an amount of 1,000 mg/kg, respectively.

[2] = test system: cholesterol biosynthesis in Hep G2 cells; assay: Test B-1: Inhibition of cholesterol biosynthesis in culture cells (Hep G2); format: cell-based; details: for inhibition at 1 µM: 1.0 × 10^-6 mol/l, Hep G2 cells, read-out: Inhibitory activities at a concentration of 1.0 × 10^-6 mol/l by Test B-1 (Relative activities); for Relative activities by Test B-1: relative to CS-514 = 1 (Test B-1)
Procedure: Hep G2 cells at over 5th passage were seeded to 12 well plates and incubated with Dulbecco's modified Eagle (DME) medium containing 10% of fetal bovine serum (FBS) at 37° C., 5% CO2 until cells were confluent for about 7 days. Cells were exposed to the DME medium contaiing 5% of lipoprotein deficient serum (LpDS) prepared by ultracentrifugation method for over 24 hours. Medium was changed to 0.5 ml of fresh 5% LpDS containing DME before assay and 10 μl of test compound solution dissolved in water or DMSO were added. 0.2 μCi of [2-^14 C]sodium acetate (20 μl ) was added at 0 hr(B-1) or 4 hrs(B-2) after addition of compounds. After 4 hrs further incubation with [2-^14 C]sodium acetate, medium was removed and cells were washed with phosphate buffered saline (PBS) chilled at 4° C. Cells were scraped with rubber policeman and collected to tubes with PBS and digested with 0.2 ml of 0.5 N KOH at 37° C. Aliquot of digestion was used for protein analysis and remaining was saponified with 1 ml of 15% EtOH-KOH at 75° C. for 1 hour. Nonsaponifiable lipids were extracted with petroleum ether and ^14 C radioactivity was counted. Counts were revised by cell protein and indicated with DPM/mg protein. Inhibitory activity of compounds was indicated with IC50. With respect to the compounds of the present invention, the inhibitory activities against the cholesterol biosynthesis in which HMG-CoA reductase serves as a rate limiting enzyme, were measured by the above Test A and B.

cholesterol biosynthesis [3] = assay: Test C: Inhibition of cholesterol biosynthesis in vivo; set-up: species or system Male Sprague-Dawley rats; details: 0.2 mg/kg, oral administration, rats
Procedure: Male Sprague-Dawley rats weighing about 150 g were fed normal Purina chow diet and water ad libitum, and exposed to 12 hours light/12 hours dark lighting pattern (2:00 PM-2:00 AM dark) prior to use for in vivo inhibition test of cholesterol biosynthesis. Animals were separated groups consisting of five rats as to be average mean body weight in each groups. Test compounds at dosage of 0.02-0.2 mg/kg body weight (0.4 ml/100 g body weight), were dissolved in water or suspended in 0.5% methyl cellulose and orally administered at 2-3 hours before mid-dark (8:00 PM), while cholesterol biosynthesis reaches to maximum in rats. As control, rats were orally administered only water or vehicle. At 90 minutes after sample administration, rats were injected intraperitoneally with 10 μCi of [2-^14 C]sodium acetate at volume of 0.2 ml per one. 2 Hours later, blood samples were obtained and serum were separated immediately. Total lipids were extracted according to the method of Folch et al. and saponified with EtOH-KOH. Nonsaponifiable lipids were extracted with petroleum ether and radio activity incorporated into nonsaponifiable lipids was counted. Inhibitory activity was indicated as percent decrease of counts in testing groups (DPM/2 ml serum/2 hours) from that in control group.

Compound | Relative activities by Test A (cholesterol biosynthesis [1]) | inhibition at 1 µM ([2]; Homo sapiens, HepG2) | other results
Cc1nn2c(-c3ccc(F)cc3)c(/C=C/C(O)CC(O)CC(=O)O)c(C3CC3)nc2c1-c1ccccc1 (stereo not shown) [Compound I-5-6] | 0.75 | 58% | mortality at 168 h (Test D: Acute toxicity): 0%
CCOC(=O)CC(O)CC(O)/C=C/c1c(C(C)C)nc2cc(C)nn2c1-c1ccc(F)cc1 (stereo not shown) [Compound I-1-1, Ethyl (E)-7-[7'-(4"-fluorophenyl)-2'-methyl-5'-(1"-methylethyl)pyrazolo[1,5-a]pyrimidin-6'-yl]-3,5-dihydroxyhept-6-enoate] |  | 67.3% | Relative activities by Test B-1 [2]: 17.8
CCOC(=O)CC(O)CC(O)/C=C/c1c(C(C)C)nc2cc(-c3ccccc3)nn2c1-c1ccc(F)cc1 (stereo not shown) [Compound I-1-3] |  | 66.1% | Relative activities by Test B-1 [2]: 29.5
CC(C)c1nc2cc(-c3ccccc3)nn2c(-c2ccc(F)cc2)c1/C=C/C(O)CC(O)CC(=O)O (stereo not shown) [Compound I-5-3] | 0.27 | 66.3% | Relative activities by Test B-1 [2]: 26.0
CCC(C)C(=O)OC1CC(O)C=C2C=CC(C)C(CCC(O)CC(O)CC(=O)O)C21 (stereo not shown) [CS-514, reference compound] |  |  | percent decrease of counts relative to control group (cholesterol biosynthesis [3]): 34%; IC50 ([2]; Homo sapiens, HepG2, Test B-1, Hep G2 cells, [2-14C]sodium acetate added at 0 hr, read-out: IC50 in Test B1): 3.66 µM
Cc1cc2nc(C3CC3)c(/C=C/C(O)CC(O)CC(=O)O)c(-c3ccc(F)cc3)n2n1 (stereo not shown) [Compound I-5-4] | 0.39 | 57.1% | mortality at 168 h (Test D: Acute toxicity): 0%
Cc1cc2nc(C(C)C)c(/C=C/C(O)CC(O)CC(=O)O)c(-c3ccc(F)cc3)n2n1 (stereo not shown) [Compound I-5-1, Sodium (E)-7-[7'-(4"-fluorophenyl)-2'-methyl-5'-(1"-methylethyl)pyrazolo[1,5-a]pyrimidin-6'-yl]-3,5-dihydroxyhept-6-enoate] | 0.64 | 53.9% | percent decrease of counts relative to control group (cholesterol biosynthesis [3]): 50%
CC(C)c1nc2cc(-c3ccco3)nn2c(-c2ccc(F)cc2)c1/C=C/C(O)CC(O)CC(=O)O (stereo not shown) [Compound I-5-7] | 0.20 |  | 
CC(C)c1nc2cc(C(C)(C)C)nn2c(-c2ccc(F)cc2)c1/C=C/C(O)CC(O)CC(=O)O (stereo not shown) [Compound I-5-2] | 0.09 | 44.6% | 
CC(C)c1nc2c3c(nn2c(-c2ccc(F)cc2)c1/C=C/C(O)CC(O)CC(=O)O)CCCC3 (stereo not shown) [Compound I-5-9] | 0.13 |  | 
CC(C)c1cc2nc(C3CC3)c(/C=C/C(O)CC(O)CC(=O)O)c(-c3ccc(F)cc3)n2n1 (stereo not shown) [Compound I-5-8] | 0.09 |  | 
Cc1nn2c(-c3ccc(F)cc3)c(/C=C/C(O)CC(O)CC(=O)O)c(C3CC3)nc2c1C (stereo not shown) [Compound I-5-5] | 0.29 | 55.3% | 
